Test results reported in US11821027B2, “Epigenetic analysis of cell therapy and related methods” (Juno Therapeutics, Inc., priority 2017, dated 2023).

Legend:
[1] = test system: Anti-BCMA CAR-expressing T cells; assay: RNA-seq gene expression in stimulated anti-BCMA CAR T cells in the presence or absence of lenalidomide; assay type: cell-based
Experimental: (§1) Anti-BCMA CAR-expressing T cells, generated from four (4) different independent donors, were stimulated with 50 μg/mL BCMA-conjugated beads for 24 hours (24 hr+stim) or 7 days (d7+stim), or cultured without stimulation for 24 hours (24 hr), in the presence or absence of lenalidomide. The CAR-expressing cells were assessed by RNA sequencing (RNA-seq) for gene expression and assayed for transposase-accessible chromatin using sequencing (ATAC-seq) for chromatin accessibility analysis.
(§2) RNA-seq was performed on the complementary DNA (cDNA) samples prepared from the RNA isolated from the cultured anti-BCMA CAR-expressing cells. ATAC-seq was performed generally as described in Buenrostro et al., Nat Methods. (2013) 10(12): 1213-1218. […]
(§3) Principal component analysis (PCA) was performed for the RNA-seq and ATAC-seq data sets, generated from DESeq2-normalized counts. Differential expression (DE, for RNA-seq) or consensus peak accessibility (DA, for ATAC-seq) were calculated, modeling donor effects (Donors 1-4) and treatment effects (lenalidomide vs. vehicle) at 24 hours and day 7. […] Gene ontology (GO) enrichment analysis was performed and activation z-score was determined on the subset of genes differentially expressed at q≤0.1 using Ingenuity Pathway Analysis software (Qiagen, Inc.), accounting for donor effects within each treatment condition.

[2] = test system: Anti-BCMA CAR-expressing T cells; assay: ATAC-seq chromatin accessibility in stimulated anti-BCMA CAR T cells in the presence or absence of lenalidomide; assay type: cell-based
Experimental: as §1, §2, §3

Question: What does the source list for `Nc1cccc2c1CN(C1CCC(=O)NC1=O)C2=O` (stereo not shown) [lenalidomide]?
Answer: effect on biological signaling pathways (differentially expressed genes) ([1]; 24 hours or 7 days with stimulation, Ingenuity Pathway Analysis): increased expression of genes involved in T cell activation and signaling; total genes altered as shown by gene expression changes ([1]; 7 days of culture with BCMA-conjugated bead stimulation, lenalidomide vs. vehicle, 4 donors, cut off q≤0.05 and log 2 fold change≥0.5): 583 genes; chromatin accessibility peaks changed ([2]; 7 days of culture with BCMA-conjugated bead stimulation, lenalidomide vs. vehicle, 4 donors, cut off q≤0.1): 2804 peaks; motif enrichment analysis of peaks (transcription factor binding motifs of T cell activation and signaling) ([2]; day 7 cultures with stimulation, HOMER, consensus peakset as background): enriched in peaks with increased accessibility
